Laboratory results from the NIST ThermoML archive (doi:10.1007/s10765-015-2006-0).

Experiment: mn = molality of the nth substance listed, in mol/kg
Settings: 101 kPa, Liquid, Frequency=3 MHz, Sing-around technique in a fixed-path interferometer

C[C@H](N)C(=O)O [(S)-2-aminopropanoic acid] + O
speed of sound [m/s]
Settings | m1 = 0.00939 | m1 = 0.04689 | m1 = 0.09896 | m1 = 0.2003 | m1 = 0.2979 | m1 = 0.3997 | m1 = 0.4941 | m1 = 0.6099 | m1 = 0.6973 | m1 = 0.7978
288.15 K | 1467.6 | 1469.9 | 1472.8 | 1480.3 | 1487.3 | 1494.3 | 1500.3 | 1509.5 | 1513.3 | 1520
298.15 K | 1497.9 | 1499.8 | 1502.8 | 1509.6 | 1515.9 | 1522.7 | 1528 | 1536.7 | 1540.4 | 1546.2
308.15 K | 1520.8 | 1522.7 | 1525.5 | 1531.8 | 1537.9 | 1544 | 1549 | 1556.8 | 1560.7 | 1566
318.15 K | 1537 | 1539.2 | 1542 | 1547.9 | 1553.2 | 1558.7 | 1564.1 | 1571.4 | 1574.7 | 1611.9

CC(C)[C@H](N)C(=O)O [L-valine] + O
speed of sound [m/s]
Settings | m1 = 0.00555 | m1 = 0.02398 | m1 = 0.03504 | m1 = 0.05824 | m1 = 0.07873 | m1 = 0.09938 | m1 = 0.2068 | m1 = 0.2992 | m1 = 0.4017
288.15 K | 1467.4 | 1467.3 | 1469.7 | 1469.6 | 1472.8 | 1474.8 | 1477 | 1488.4 | 1497.2
298.15 K | 1497.5 | 1497.4 | 1499.6 | 1499.7 | 1502.4 | 1504.4 | 1506.2 | 1516.6 | 1524.8
308.15 K | 1520.4 | 1520.4 | 1522 | 1522.6 | 1525 | 1526.9 | 1528.2 | 1537.8 | 1545.2
318.15 K | 1537.1 | 1537.4 | 1538.7 | 1539 | 1541.2 | 1542.7 | 1544.4 | 1552.5 | 1560.4
